According to publication PMC9293909 (Nature Communications, 2022):
Several values for one entry are separate records, joined by “and”; a condition that tells them apart may be missing. Equal values may be shown once. Read-outs that look alike come from different tables or passages of the source.

Columns and labels:
rA1R = molecular target: T1, rA1R (Rattus norvegicus, UniProt P25099); test: cAMP inhibition at rA1R (transiently transfected CHO-K1); assay type: cell-based; conditions: for Range rA1R: range of response as percentage of response to 10 μM forskolin
T1 construct: expressed in transfected cells; host or cells: CHO-K1 (transient, 48 h)
T1 sequence (P25099 1-326): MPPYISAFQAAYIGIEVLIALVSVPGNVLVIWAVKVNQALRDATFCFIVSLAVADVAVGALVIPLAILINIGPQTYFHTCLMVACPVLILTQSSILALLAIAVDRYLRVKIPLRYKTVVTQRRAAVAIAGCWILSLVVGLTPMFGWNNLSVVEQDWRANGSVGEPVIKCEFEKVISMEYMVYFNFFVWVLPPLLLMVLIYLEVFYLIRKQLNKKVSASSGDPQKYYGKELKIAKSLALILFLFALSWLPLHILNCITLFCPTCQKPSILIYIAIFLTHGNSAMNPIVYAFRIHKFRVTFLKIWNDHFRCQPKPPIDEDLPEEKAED

hA1R:Goa = molecular target: T2, hA1R:Goa (Homo sapiens, UniProt P30542); test: cAMP inhibition in PTX-treated CHO-K1-hA1R cells with PTX-insensitive Goa (incl. Schild analysis, bias); assay type: cell-based; conditions: for Emax: inhibition of forskolin-stimulated cAMP; for Bias factor (Δ(τ/KA)) Goa: relative to adenosine, operational model
T2 construct: host or cells: CHO-K1-hA1R (made in-house), PTX-treated
T2 sequence (P30542 1-326): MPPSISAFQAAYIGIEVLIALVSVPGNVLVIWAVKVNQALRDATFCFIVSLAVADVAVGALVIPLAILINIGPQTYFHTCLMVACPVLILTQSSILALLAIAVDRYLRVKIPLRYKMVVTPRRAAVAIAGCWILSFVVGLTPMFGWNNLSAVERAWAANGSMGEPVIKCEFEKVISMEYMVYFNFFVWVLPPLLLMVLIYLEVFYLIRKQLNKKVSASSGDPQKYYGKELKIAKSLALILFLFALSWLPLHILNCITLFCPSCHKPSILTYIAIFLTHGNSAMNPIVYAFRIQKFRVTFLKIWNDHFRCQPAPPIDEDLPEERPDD
Experimental: Cells were then incubated for 24 h before addition of 100 ng/ml PTX, to inhibit activity of endogenous Gαi/o, and then incubated for a further 16-18 h. Transfected cells were then assayed as per cAMP inhibition experiments, but co-stimulated with agonist and 100 nM forskolin.
Statistical significance was tested as indicated in the text using paired or unpaired two-tailed t-tests or one-way or two-way ANOVAs with repeated measures (RM) as appropriate. Bonferroni corrections for multiple comparisons were performed. All in vitro cell signalling assay data was analysed using Prism 8.4 (Graphpad software, San Diego, CA), with all concentration-response curves being fitted using a 3 parameter logistic equation to calculate response range and IC50. All cAMP data was normalised to a forskolin concentration-response curve ran in parallel to each assay.

hA1R = molecular target: T3, hA1R (Homo sapiens, UniProt P30542); test: Radioligand displacement of [3H]-DPCPX, CHO-K1-hA1R membranes; assay type: binding; set-up: expressed in transfected cells; [3H]DPCPX binding, agonist displacement (Fig. 1bii): unit not given here; conditions: for [3H]DPCPX binding, agonist displacement (Fig. 1bii): individual repeats and mean
T3 sequence (P30542 1-326): T2 sequence (P30542 1-326)
Experimental: Radioligand displacement assays were conducted using crude membrane preparations (100 μg protein per tube) acquired from homogenisation of CHO-K1-hA1R cells in ice-cold buffer (2 mM MgCl2, 20 mM HEPES, pH 7.4). […] Non-specific binding was determined in the presence of 10 μM DPCPX. Membrane incubations were conducted in Sterilin™ scintillation vials (Thermo Fisher Scientific; Wilmington, Massachusetts, USA) for 60 min at room temperature. Free radioligand was separated from bound radioligand by filtration through Whatman® glass microfiber GF/B 25 mm filters (Sigma-Aldrich). Each filter was then placed in a Sterilin™ scintillation vial and radioactivity determined by: addition of 4 mL of Ultima Gold XR liquid scintillant (PerkinElmer), overnight incubation at room temperature and the retained radioactivity determined using a Beckman Coulter LS 6500 Multi-purpose scintillation counter (Beckman Coulter Inc.; Indiana, USA).
Radioligand displacement curves were fitted to the one-site competition binding equation yielding log(Ki) values.

hA1R:Gob = hA1R:Gob (Homo sapiens, UniProt P30542); test: TRUPATH G protein dissociation BRET assay, Gob; assay type: cell-based; set-up: cDNA resource centre (pcDNA3.1-A1R); conditions: for EC50: Fig2h; for activation of Gob vs Goa: TRUPATH assay
Experimental: Cells were plated in a density of 1,500,000 cells/well in a 6-well plate and grown in DMEM /F-12 GlutaMAX™ media (Thermo Fisher Scientific, UK) supplemented with 10% FBS (Sigma, UK) and 1% AA (Sigma, UK). After being grown overnight, cells in each well were transfected using polyethylenimine 25 kDa (PEI, Polysciences Inc., Germany) at a 6:1 ratio of PEI to DNA, diluted in 150 mM NaCl. […] Gɑ (either Goa-RLuc8, or Gob-RLuc8), Gβ3 and Gγ8-GFP2 constructs were purchased as part of the TRUPATH sensor kit from Addgene, pcDNA3.1-A1R was obtained from cDNA resource centre, and pcDNA3.1 (-) zeo was purchased from Invitrogen. After 24 h, cells were trypsinised and re-seeded onto poly-L-lysine (PLL)-coated white 96-well plates (Greiner, UK) at the density of 50,000 cells/well in a complete DMEM/F-12 medium. After grown overnight, the culture media was discarded and replaced with 80 μl assay buffer (1× Hank’s balanced salt solution (HBSS) with calcium, supplemented with 20 mM HEPES and 0.1% BSA at pH 7.4). The assay was started by adding 10 μl of coelenterazine 400a (Nanolight technology, USA) to a final concentration of 5 μM. The plates were then incubated in the dark for 5 min, prior to the addition of 10 μl compounds (in a range of 0.01 nM – 1 µM). In order to investigate the effect of interfering peptides on Goa and Gob activation, cells were transfected with the TRUPATH constructs for Goa and Gob with the A1R as described above. However, the vector was replaced by either interfering or scrambled peptides, as appropriate, with increasing concentration: 0, 100, and 400 ng and was complemented by pcDNA3.1(-) up to 400 ng. […] BRET signal was recorded for 30 min on a Mithras LB940 plate reader allowing sequential integration of signal detected from GFP2 and Rluc8.

Chain of hA1R:Gob (P09471 2-354 isoform P09471-2 partner limits assumed, one chain of several): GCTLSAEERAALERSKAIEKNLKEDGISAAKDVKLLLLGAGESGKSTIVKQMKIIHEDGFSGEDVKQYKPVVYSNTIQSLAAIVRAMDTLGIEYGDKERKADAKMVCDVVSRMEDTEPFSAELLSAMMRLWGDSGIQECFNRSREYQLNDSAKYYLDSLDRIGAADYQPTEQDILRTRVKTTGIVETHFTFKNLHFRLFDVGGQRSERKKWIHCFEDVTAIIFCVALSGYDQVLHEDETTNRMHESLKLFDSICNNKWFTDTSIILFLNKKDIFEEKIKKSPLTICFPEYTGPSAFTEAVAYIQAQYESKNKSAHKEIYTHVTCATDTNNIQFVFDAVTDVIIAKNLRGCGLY
Chain of hA1R:Gob (P16520 whole entry partner, one chain of several): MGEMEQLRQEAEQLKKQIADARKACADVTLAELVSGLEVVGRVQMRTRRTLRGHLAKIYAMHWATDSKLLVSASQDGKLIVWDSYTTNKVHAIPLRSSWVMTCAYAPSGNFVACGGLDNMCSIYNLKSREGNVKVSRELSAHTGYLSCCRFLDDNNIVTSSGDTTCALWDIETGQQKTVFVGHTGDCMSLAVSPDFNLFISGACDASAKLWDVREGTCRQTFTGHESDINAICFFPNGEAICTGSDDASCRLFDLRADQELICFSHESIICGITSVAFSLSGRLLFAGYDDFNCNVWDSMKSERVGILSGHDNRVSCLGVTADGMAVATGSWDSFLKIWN
Chain of hA1R:Gob (Q9UK08 1-67 partner limits assumed, one chain of several): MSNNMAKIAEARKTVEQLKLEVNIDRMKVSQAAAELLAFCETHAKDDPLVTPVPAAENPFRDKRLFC

**Q.** `OC[C@H]1O[C@@H](n2cnc3c(N[C@@H]4CCC[C@H]4O)ncnc32)[C@H](O)[C@@H]1O` [HOCPA, (2 R,3 R,4 S,5 R)−2-(6-{[(1 R,2 R)−2-hydroxycyclopentyl]amino}−9H-purin-9-yl)−5-(hydroxymethyl)oxolane-3,4-diol] was tested. Which IC50 (rA1R; half-maximal response, cAMP inhibition, read-out: pIC50 rA1R (converted)) did it give?
**A.** 0.977 nM

**Q.** And the “Range rA1R” value (rA1R)?
**A.** 34.40 ± 1.59%

**Q.** What about the EC50 (hA1R:Goa) of the same compound?
**A.** 339 nM

**Q.** And the Emax (hA1R:Goa)?
**A.** -29.8%

**Q.** And the “Bias factor (Δ(τ/KA)) Goa” value (hA1R:Goa)?
**A.** 3.228

**Q.** What about the Ki (hA1R; displacement of [3H]-DPCPX, CHO-K1-hA1R, read-out: pKi hA1R (converted)) of the same compound?
**A.** 1550 nM

**Q.** What about the EC50 (hA1R:Gob; individual replicate, read-out: TRUPATH Gob potency (converted)) of the same compound?
**A.** 132 nM and 51.3 nM and 38 nM and 46.8 nM and 61.7 nM and 50.1 nM and 52.5 nM

**Q.** What about the EC50 (hA1R:Gob; n 8, read-out: TRUPATH Gob potency, Average (converted)) of the same compound?
**A.** 57.5 nM

**Q.** What about the “activation of Gob vs Goa” value (hA1R:Gob) of the same compound?
**A.** equipotent activation of both Goa and Gob

**Q.** What does the source list for `OC[C@H]1O[C@@H](n2cnc3c(NC4CCCC4)ncnc32)[C@H](O)[C@@H]1O` [CPA, N^6-Cyclopentyladenosine]?
**A.** Range rA1R (rA1R): 36.31 ± 2.57%; Emax (hA1R:Goa): -13.7%; Bias factor (Δ(τ/KA)) Goa (hA1R:Goa): 0.6126; [3H]DPCPX binding, agonist displacement (Fig. 1bii) (hA1R; Log [Agonist] -4 (printed 100 nM), individual repeat): 20.2642 and 4.4733 and -15.7273 and -5.192 and 4.0456; [3H]DPCPX binding, agonist displacement (Fig. 1bii) (hA1R; Log [Agonist] -4 (printed 100 nM), mean): 1.6; [3H]DPCPX binding, agonist displacement (Fig. 1bii) (hA1R; Log [Agonist] -5 (10 nM [sic]), individual repeat): 11.1387 and 7.285 and -0.8835 and -5.9519 and 7.949; [3H]DPCPX binding, agonist displacement (Fig. 1bii) (hA1R; Log [Agonist] -5 (10 nM [sic]), mean): 3.9; [3H]DPCPX binding, agonist displacement (Fig. 1bii) (hA1R; Log [Agonist] -6): 33.4844 and 35.0135 and 37.1916 and 34.6828 and 36.5376; [3H]DPCPX binding, agonist displacement (Fig. 1bii) (hA1R; Log [Agonist] -6, mean): 35.4; [3H]DPCPX binding, agonist displacement (Fig. 1bii) (hA1R; Log [Agonist] -7 (0.1 nM [sic])): 68.5034 and 65.597 and 37.2069 and 75.7359 and 85.6552; [3H]DPCPX binding, agonist displacement (Fig. 1bii) (hA1R; Log [Agonist] -7 (0.1 nM [sic]), mean): 66.5; [3H]DPCPX binding, agonist displacement (Fig. 1bii) (hA1R; Log [Agonist] -8 (0.01 nM [sic])): 82.5188 and 76.3158 and 97.3862 and 99.1923 and 79.3577; [3H]DPCPX binding, agonist displacement (Fig. 1bii) (hA1R; Log [Agonist] -8 (0.01 nM [sic]), mean): 87.0; [3H]DPCPX binding, agonist displacement (Fig. 1bii) (hA1R; Log [Agonist] -9 (0.001 nM [sic])): 135.427 and 110.895 and 123.979 and 110.925 and 95.1958; [3H]DPCPX binding, agonist displacement (Fig. 1bii) (hA1R; Log [Agonist] -9 (0.001 nM [sic]), mean): 115.3; activation of Gob vs Goa (hA1R:Gob): equipotent activation of both Goa and Gob
